Data taken from PubChem BioAssay (NCI).
Several values for one entry are separate records, joined by “and”; a condition that tells them apart may be missing. Identical values can stand only once.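 96-well plates; 48 h exposure; 5 concentrations. Endpoints by linear interpolation between flanking doses. Not reached: highest tested concentration assigned. At the GI50, growth is halved. The concentration for full growth arrest is given as TGI.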

What was measured:
Assay in all cases: NCI tumour cell line growth inhibition, 48 h
ACHN renal = tested on: ACHN renal
DU-145 prostate = tested on: DU-145 prostate
MDA-MB-231 breast = tested on: MDA-MB-231 breast
OVCAR-5 ovarian = tested on: OVCAR-5 ovarian
RPMI-8226 leukemia = tested on: RPMI-8226 leukemia
SF-295 CNS = tested on: SF-295 CNS
SK-MEL-28 melanoma = tested on: SK-MEL-28 melanoma
SNB-19 CNS = tested on: SNB-19 CNS
SW-620 colon = tested on: SW-620 colon
T-47D breast = tested on: T-47D breast

Structure (SMILES)	GI50 (ACHN renal)	TGI (ACHN renal)	GI50 (DU-145 prostate)	TGI (DU-145 prostate)	GI50 (MDA-MB-231 breast)	TGI (MDA-MB-231 breast)	GI50 (OVCAR-5 ovarian)	TGI (OVCAR-5 ovarian)	GI50 (RPMI-8226 leukemia)	TGI (RPMI-8226 leukemia)	GI50 (SF-295 CNS)	TGI (SF-295 CNS)	GI50 (SK-MEL-28 melanoma)	TGI (SK-MEL-28 melanoma)	GI50 (SNB-19 CNS)	TGI (SNB-19 CNS)	GI50 (SW-620 colon)	TGI (SW-620 colon)	GI50 (T-47D breast)	TGI (T-47D breast)
CCOC(=O)c1c(NC(=O)c2ccc(C(C)C)cc2)sc2c(CN(C)C)c(O)ccc12	3.03 µM	9.24 µM	2.2 µM	5.21 µM	1.95 µM	3.83 µM	2.92 µM	9.49 µM	1.84 µM	4.6 µM	1.86 µM	3.45 µM	1.73 µM	3.24 µM	2.36 µM	5.3 µM	1.7 µM	3.41 µM	2.01 µM	5.17 µM
COc1ccc(C2SC(N)=Nc3c2c(C)nn3C(=O)c2ccc(Cl)cc2)cc1OC (centres undefined)	–	> 10 µM	–	> 10 µM	–	> 10 µM	–	> 10 µM	–	> 10 µM	–	> 10 µM	–	> 10 µM	–	> 10 µM	–	> 10 µM	–	> 10 µM
CC(CO)[C@H]1OC(=O)C=C2[C@@]13O[C@@H]3[C@H]1OC(=O)[C@@]3(C)[C@H]4O[C@H]4C[C@@]2(C)[C@@H]13 (some centres undefined)	–	4 µM	–	> 27.1 µM	–	> 29.6 µM	–	> 87.9 µM	–	8.75 µM	–	> 33.4 µM	–	> 100 µM	–	> 30.8 µM	–	> 100 µM	–	> 46.1 µM
CN1CCCN(CCNc2nccc(-c3c(-c4cccc(O)c4)nc4sccn34)n2)S1(=O)=O	2.72 µM and 2.91 µM	75 µM and > 100 µM	6.84 µM and 6.32 µM	46.9 µM and > 59.3 µM	10 µM and 8.06 µM	59.2 µM and > 84.4 µM	27 µM and 32.3 µM	75 µM and > 100 µM	16.7 µM and 15.2 µM	37.2 µM and 41.3 µM	12.9 µM and 13.3 µM	32.1 µM and 38.8 µM	0.168 µM and 0.226 µM	60.8 µM and 40.3 µM	40 µM and 48.7 µM	75 µM and > 100 µM	18.7 µM and 19.1 µM	75 µM and > 100 µM	14.2 µM and 11.8 µM	57.1 µM and > 88.7 µM
Fc1cccc(COc2ccc(Nc3ncnc4sc(-c5ccco5)cc34)cc2Cl)c1	> 25 µM	> 25 µM	> 25 µM	> 25 µM	> 25 µM	> 25 µM	> 25 µM	> 25 µM	> 25 µM	> 25 µM	> 25 µM	> 25 µM	> 25 µM	> 25 µM	> 25 µM	> 25 µM	> 25 µM	> 25 µM	> 14.5 µM	> 25 µM
CC(C)n1c(/C=C/[C@@H](O)C[C@@H](O)CC(=O)O)c(-c2ccc(F)cc2)c2ccccc21	0.725 µM and 0.558 µM	> 100 µM	24.8 µM and 26.4 µM	> 100 µM	0.219 µM	0.535 µM	18.5 µM and 26.6 µM	> 100 µM	5.55 µM and 10.3 µM	> 100 µM	0.361 µM and 0.429 µM	–	12.2 µM and 15.4 µM	53.9 µM and > 86.3 µM	4.23 µM and 1.32 µM	> 100 µM	3.76 µM and 5.15 µM	> 100 µM	14.2 µM and 13.8 µM	> 100 µM
Cc1nc(SCC(N)=O)c2sc(=S)n(-c3ccccc3)c2n1	–	> 10 µM	–	> 10 µM	–	> 10 µM	–	> 10 µM	–	> 10 µM	–	> 10 µM	–	> 10 µM	–	> 10 µM	–	> 10 µM	–	> 10 µM
CCOc1ccc(NCC2CC/C(=C\C=C\c3ccccc3)C2=O)cc1 (centres undefined)	–	> 92.2 µM	–	> 93.3 µM	–	24.7 µM	–	53.4 µM	–	> 100 µM	–	79.5 µM	–	35.5 µM	–	60.9 µM	–	21.3 µM	–	45.3 µM
C[C@]12CC[C@@H]3c4ccc(O)c([N+](=O)[O-])c4CC[C@H]3[C@@H]1CC[C@@H]2NS(=O)(=O)c1ccc(C(F)(F)F)cc1	2.17 µM	6.78 µM	2.63 µM	7.11 µM	1.49 µM	2.93 µM	1.81 µM	3.72 µM	2.17 µM	5.4 µM	2.96 µM	10.6 µM	1.99 µM	3.66 µM	2.79 µM	11.2 µM	2.04 µM	4.78 µM	2.45 µM	7.22 µM
O=C(O)c1cc[c]([Hg][S]c2ncnc3nc[nH]c23)cc1	11.6 µM	23.7 µM	7.47 µM	25.1 µM	6.59 µM	21 µM	14.1 µM	29 µM	4.91 µM	28.2 µM	11.7 µM	> 100 µM	17.4 µM	32 µM	> 76.7 µM	> 100 µM	11.4 µM	23.5 µM	4.52 µM	36.7 µM
COc1cc(-c2csc(NC(=O)c3cc(C(F)(F)F)cc(C(F)(F)F)c3)n2)cc(OC)c1OC	3.42 µM	> 100 µM	3.62 µM	> 100 µM	2.72 µM	> 100 µM	3.94 µM	> 100 µM	1.38 µM	4.05 µM	2.27 µM	14.7 µM	2.77 µM	> 100 µM	3.89 µM	> 100 µM	3.44 µM	> 100 µM	1.84 µM	6.29 µM
Cc1ccc(C(=O)Nc2ccc(CN3CCN(C)CC3)c(C(F)(F)F)c2)cc1C#Cc1cnc(N)c2ccc(F)cc12	0.0791 µM	0.401 µM	0.139 µM	0.554 µM	0.353 µM	0.905 µM	0.694 µM	2.7 µM	0.53 µM	1.64 µM	0.633 µM	2.34 µM	0.41 µM	0.918 µM	0.641 µM	1.81 µM	0.251 µM	0.638 µM	0.77 µM	3.68 µM
COc1ccc(-c2cc(-c3ccc(Cl)cc3)c(C#N)c(=O)n2CCCCC(=O)Nc2ccccc2N)cc1	5.25 µM	> 100 µM	16.3 µM	> 100 µM	7.86 µM	> 100 µM	10.8 µM	> 100 µM	0.789 µM	6.68 µM	2.33 µM	5.96 µM	9.13 µM	> 100 µM	22.2 µM	> 100 µM	12.6 µM	> 100 µM	4.44 µM	> 100 µM
Clc1ccc(COC(Cn2ccnc2)c2ccc(Cl)cc2Cl)cc1 (centres undefined)	3.59 µM	12.6 µM and 29.8 µM and 25.9 µM	5.41 µM	17.8 µM and 30.1 µM and 28.2 µM	1.04 µM	8.48 µM and 26.9 µM and 26 µM	4.24 µM	16.8 µM and 24.4 µM and 28.1 µM	1.9 µM	6.82 µM and 32.3 µM and 23.2 µM	1.9 µM	8.99 µM and 24 µM and 23.6 µM	4.66 µM	16.6 µM and 34.6 µM and 30 µM	3.35 µM	17.9 µM and 32.3 µM and 30.5 µM	2.96 µM	13.3 µM and 27.4 µM and 29.2 µM	2.26 µM	8.76 µM and 23.4 µM and 19.9 µM
CCc1nc(N)nc(N)c1-c1ccc([N+](=O)[O-])c(NCc2ccccc2)c1	–	30.5 µM	–	31.5 µM	–	38.1 µM	–	> 100 µM	–	32.2 µM	–	28.4 µM	–	35.1 µM	–	38.9 µM	–	42.9 µM	–	> 46.8 µM
O=C(Nc1ccc(OC(F)(F)F)cc1)c1sccc1NCc1ccnc2ccccc12	2.56 µM	> 100 µM	3.65 µM	> 100 µM	1.98 µM	15.5 µM	7.73 µM	> 100 µM	3.32 µM	29.8 µM	2.63 µM	> 45.7 µM	5.64 µM	> 100 µM	13 µM	> 100 µM	5.03 µM	> 100 µM	2.48 µM	> 95.9 µM
Clc1ccccc1NN(Cc1ccccn1)c1ccccc1Cl	–	> 100 µM	–	> 100 µM	–	57.4 µM	–	45.7 µM	–	61.4 µM	–	71.4 µM	–	43.4 µM	–	79.7 µM	–	37.7 µM	–	> 100 µM
CC1(C)CCC(C)(C)c2cc(C(=O)Nc3ccc(C(=O)O)cc3)ccc21	–	> 61.2 µM	–	> 73.6 µM	–	> 95.2 µM	–	> 100 µM	–	57.7 µM	–	> 54.7 µM	–	> 90.8 µM	–	> 66.4 µM	–	> 100 µM	–	> 79.4 µM
COC1/C=C/OC2(C)Oc3c(C)c(O)c4c(c3C2=O)C(=O)C=C(NC(=O)/C(C)=C\C=C\C(C)C(OC=O)C(C)C(O)C(C)C(OC(C)=O)C1C)C4=O (centres undefined)	–	21.5 µM	–	33 µM	–	> 48.5 µM	–	36.4 µM	–	24.2 µM	–	51 µM	–	15 µM	–	27.4 µM	–	14 µM	–	11.6 µM
COc1cc2cc(Oc3ccc(NC(=O)c4cccc(C(F)(F)F)c4)cc3)c(C)nc2cc1OC	3.6 µM	> 100 µM	8.48 µM	> 100 µM	3.38 µM	46.6 µM	> 100 µM	> 100 µM	3.67 µM	> 100 µM	2.73 µM	> 100 µM	6.61 µM	> 100 µM	8.09 µM	> 100 µM	10.2 µM	> 100 µM	3.23 µM	> 100 µM
CSc1ccc(C2=Nn3c(nnc3-c3ccc(F)c(Cl)c3)SC2)cc1	13.7 µM	33.6 µM	34.2 µM	> 100 µM	4.12 µM	21 µM	39.5 µM	> 100 µM	18.6 µM	> 100 µM	3.57 µM	17.5 µM	34.2 µM	> 100 µM	10.7 µM	32.7 µM	11.6 µM	> 100 µM	71 µM	> 100 µM
